Assay in all cases: relative viability (nuclei count vs DMSO), 5 days (fraction); higher = more cells survive
Compound in assay [1]: Cc1ccc(C(=O)N(CCCN)[C@@H](c2nc3cc(Cl)ccc3c(=O)n2Cc2ccccc2)C(C)C)cc1 [Ispinesib] + CS(=O)(=O)N1CCN(Cc2cc3nc(-c4cccc5[nH]ncc45)nc(N4CCOCC4)c3s2)CC1 [Pictilisib] (partner 1 µM)
The method in brief: (§1)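 Relative viability equals treated-well nuclei counts divided by vehicle-well nuclei counts. Counts came from 4× images of lung cancer cell lines grown in 1536-well plates for 5 days after pin-tool dosing on the day after seeding. Dosing used one drug alone or a fixed anchor-drug dose plus five library-drug doses (not always all listed) in √10 steps, and values are medians of duplicate plates.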

Compound in assay [2]: Cc1ccc(C(=O)N(CCCN)[C@@H](c2nc3cc(Cl)ccc3c(=O)n2Cc2ccccc2)C(C)C)cc1 [Ispinesib] + CC(C)C[C@H](NC(=O)[C@H](Cc1ccccc1)NC(=O)c1cnccn1)B(O)O [Bortezomib] (partner 0.002 µM)
In short, it runs like this:
as §1

Compound in assay [3]: C[C@]1(O)C[C@@H](c2nc(-c3ccc4ccc(-c5ccccc5)nc4c3)c3c(N)nccn32)C1 [Linsitinib] + Nc1nc2[nH]cc(CCc3ccc(C(=O)N[C@@H](CCC(=O)O)C(=O)O)cc3)c2c(=O)[nH]1 [Pemetrexed] (partner 0.2 µM)
In short, it runs like this: as §1

Compound in assay [4]: Cc1ccc(C(=O)N(CCCN)[C@@H](c2nc3cc(Cl)ccc3c(=O)n2Cc2ccccc2)C(C)C)cc1 [Ispinesib] + CC(=O)c1c(C)c2cnc(Nc3ccc(N4CCNCC4)cn3)nc2n(C2CCCC2)c1=O [Palbociclib] (partner 0.5 µM)
In short, it runs like this: as §1

Regarding 201T, the relative viability worked out at 0.724 in assay [1] (first compound 0.001 µM); 0.733 in assay [1] (first compound 0.003162 µM); 0.677 in assay [1] (first compound 0.01 µM); 0.643 in assay [1] (first compound 0.03162 µM); 0.652 in assay [1] (first compound 0.1 µM); 1.13 in assay [2] (first compound 0.001 µM). In addition, the relative viability in assay [2] (first compound 0.003162 µM) was found to be 1.16; in assay [2] (first compound 0.01 µM) it was 0.947; in assay [2] (first compound 0.03162 µM), 1.02; in assay [2] (first compound 0.1 µM) it was 0.669; in assay [3] (first compound 0.01 µM) it was 0.319; in assay [3] (first compound 0.03162 µM) it was 0.272. In addition, the relative viability in assay [3] (first compound 0.1 µM) is 0.343; in assay [3] (first compound 0.3162 µM), 0.287; in assay [3] (first compound 1 µM), 0.29; in assay [4] (first compound 0.001 µM), 0.378; in assay [4] (first compound 0.003162 µM) it was 0.407; in assay [4] (first compound 0.01 µM), 0.361. Further, the relative viability was 0.409 in assay [4] (first compound 0.03162 µM) and 0.345 in assay [4] (first compound 0.1 µM).

As to A549, the relative viability stood at 0.674 in assay [1] (first compound 0.001 µM); 0.525 in assay [1] (first compound 0.003162 µM); 0.831 in assay [1] (first compound 0.01 µM); 0.173 in assay [1] (first compound 0.03162 µM); 0.158 in assay [1] (first compound 0.1 µM).

With A-427, the relative viability in assay [1] (first compound 0.001 µM) came out at 0.805; in assay [1] (first compound 0.003162 µM), 0.829; in assay [1] (first compound 0.01 µM), 0.891; in assay [1] (first compound 0.03162 µM), 0.388; in assay [1] (first compound 0.1 µM), 0.177; in assay [2] (first compound 0.001 µM), 0.98. In addition, the relative viability was 1.07 in assay [2] (first compound 0.003162 µM); 1.01 in assay [2] (first compound 0.01 µM); 0.351 in assay [2] (first compound 0.03162 µM); 0.206 in assay [2] (first compound 0.1 µM); 0.951 in assay [3] (first compound 0.01 µM); 1.03 in assay [3] (first compound 0.03162 µM). The relative viability in assay [3] (first compound 0.1 µM) turned out to be 0.986; in assay [3] (first compound 1 µM), 0.866; in assay [4] (first compound 0.001 µM) it was 0.53; in assay [4] (first compound 0.003162 µM) it was 0.538; in assay [4] (first compound 0.01 µM), 0.55; in assay [4] (first compound 0.03162 µM) it was 0.322. Further, the relative viability in assay [4] (first compound 0.1 µM) is 0.282.

On to ABC-1, for which the relative viability in assay [1] (first compound 0.001 µM) was 0.656; in assay [1] (first compound 0.003162 µM), 0.678; in assay [1] (first compound 0.01 µM), 0.692; in assay [1] (first compound 0.03162 µM) it was 0.301; in assay [1] (first compound 0.1 µM), 0.339; in assay [2] (first compound 0.001 µM), 0.269. Further, the relative viability was 0.317 in assay [2] (first compound 0.003162 µM); 0.302 in assay [2] (first compound 0.01 µM); 0.197 in assay [2] (first compound 0.03162 µM); 0.273 in assay [2] (first compound 0.1 µM); 0.578 in assay [4] (first compound 0.001 µM); 0.665 in assay [4] (first compound 0.003162 µM). The relative viability in assay [4] (first compound 0.01 µM) is 0.765; in assay [4] (first compound 0.1 µM) it was 0.49.

As to BEN, the relative viability in assay [1] (first compound 0.001 µM) was 0.581; in assay [1] (first compound 0.003162 µM), 0.675; in assay [1] (first compound 0.01 µM), 0.542; in assay [1] (first compound 0.03162 µM) it was 0.421; in assay [1] (first compound 0.1 µM), 0.222; in assay [2] (first compound 0.001 µM), 0.927. Besides, the relative viability in assay [2] (first compound 0.003162 µM) worked out at 1.01; in assay [2] (first compound 0.01 µM), 0.851; in assay [2] (first compound 0.03162 µM), 0.431; in assay [2] (first compound 0.1 µM), 0.201; in assay [3] (first compound 0.01 µM) it was 0.599; in assay [3] (first compound 0.03162 µM), 0.723. The relative viability is 0.704 in assay [3] (first compound 0.1 µM); 0.562 in assay [3] (first compound 0.3162 µM); 0.63 in assay [3] (first compound 1 µM); 0.463 in assay [4] (first compound 0.001 µM); 0.514 in assay [4] (first compound 0.003162 µM); 0.478 in assay [4] (first compound 0.01 µM). In addition, the results for the relative viability in assay [4] (first compound 0.03162 µM) and in assay [4] (first compound 0.1 µM) were 0.47 and 0.372, respectively.

CAL-12T: the relative viability was found to be 0.413 in assay [1] (first compound 0.001 µM); 0.545 in assay [1] (first compound 0.003162 µM); 0.523 in assay [1] (first compound 0.01 µM); 0.295 in assay [1] (first compound 0.03162 µM); 0.172 in assay [1] (first compound 0.1 µM); 0.961 in assay [2] (first compound 0.001 µM). The relative viability turned out to be 1.4 in assay [2] (first compound 0.003162 µM); 0.955 in assay [2] (first compound 0.01 µM); 0.579 in assay [2] (first compound 0.03162 µM); 0.184 in assay [2] (first compound 0.1 µM); 1.25 in assay [3] (first compound 0.01 µM); 0.946 in assay [3] (first compound 0.03162 µM). In addition, the relative viability was 1.23 in assay [3] (first compound 0.1 µM); 1.14 in assay [3] (first compound 0.3162 µM); 1.13 in assay [3] (first compound 1 µM); 0.452 in assay [4] (first compound 0.001 µM); 0.409 in assay [4] (first compound 0.003162 µM); 0.29 in assay [4] (first compound 0.01 µM). Further, the relative viability in assay [4] (first compound 0.03162 µM) was determined as 0.177; in assay [4] (first compound 0.1 µM), 0.195.

In the case of COR-L23, the relative viability in assay [1] (first compound 0.001 µM) amounted to 0.895; in assay [1] (first compound 0.003162 µM), 0.863; in assay [1] (first compound 0.01 µM) it was 0.908; in assay [1] (first compound 0.03162 µM), 0.181; in assay [1] (first compound 0.1 µM) it was 0.235; in assay [2] (first compound 0.001 µM), 1.29. Moreover, the relative viability in assay [2] (first compound 0.003162 µM) stood at 1.04; in assay [2] (first compound 0.01 µM) it was 1.17; in assay [2] (first compound 0.03162 µM), 0.247; in assay [2] (first compound 0.1 µM) it was 0.27; in assay [3] (first compound 0.01 µM), 0.202; in assay [3] (first compound 0.03162 µM) it was 0.184. For the same cell line, the relative viability was 0.189 in assay [3] (first compound 0.1 µM); 0.184 in assay [3] (first compound 0.3162 µM); 0.18 in assay [3] (first compound 1 µM); 0.261 in assay [4] (first compound 0.001 µM); 0.267 in assay [4] (first compound 0.003162 µM); 0.217 in assay [4] (first compound 0.01 µM). Also, the relative viability in assay [4] (first compound 0.03162 µM) was found to be 0.148; in assay [4] (first compound 0.1 µM), 0.171.

For the cell line COR-L 105, the relative viability was found to be 0.448 in assay [1] (first compound 0.001 µM); 0.393 in assay [1] (first compound 0.003162 µM); 0.257 in assay [1] (first compound 0.01 µM); 0.243 in assay [1] (first compound 0.03162 µM); 0.258 in assay [1] (first compound 0.1 µM); 0.836 in assay [2] (first compound 0.001 µM). Besides, the relative viability in assay [2] (first compound 0.003162 µM) was determined as 0.664; in assay [2] (first compound 0.01 µM) it was 0.325; in assay [2] (first compound 0.03162 µM), 0.311; in assay [2] (first compound 0.1 µM), 0.303; in assay [3] (first compound 0.01 µM) it was 0.963; in assay [3] (first compound 0.03162 µM), 1.1. The relative viability in assay [3] (first compound 0.1 µM) was determined as 1.23; in assay [3] (first compound 0.3162 µM) it was 0.771; in assay [3] (first compound 1 µM), 0.984; in assay [4] (first compound 0.001 µM), 0.439; in assay [4] (first compound 0.003162 µM) it was 0.39; in assay [4] (first compound 0.01 µM), 0.369. The figures for the relative viability in assay [4] (first compound 0.03162 µM) and in assay [4] (first compound 0.1 µM) were 0.362 and 0.305, respectively.

Regarding Calu-6, the relative viability in assay [1] (first compound 0.001 µM) turned out to be 1.09; in assay [1] (first compound 0.003162 µM) it was 0.727; in assay [1] (first compound 0.01 µM) it was 0.186; in assay [1] (first compound 0.03162 µM), 0.113; in assay [1] (first compound 0.1 µM) it was 0.155; in assay [2] (first compound 0.001 µM), 0.9. Besides, the relative viability came to 0.725 in assay [2] (first compound 0.003162 µM), 0.24 in assay [2] (first compound 0.01 µM), 0.137 in assay [2] (first compound 0.03162 µM) and 0.202 in assay [2] (first compound 0.1 µM).

The values are drawn from the supplement of paper PMC10307832.
